Values of other authors, collected in patent publication US20080261897A1, “Formulation Containing a Polyphenol-Containing Composition and Isomaltulose” (priority 2005, published 2008).

## O=C(CO)[C@@H](O)[C@H](O)[C@H](O)CO[C@H]1O[C@H](CO)[C@@H](O)[C@H](O)[C@H]1O [isomaltulose, 6-O-α-D-glucopyranosylfructose]
  solubility of isomaltulose in water: 0.49 g of anhydrous isomaltulose per g of water
